Here are results for four compounds from publication PMC7760626, “Screening of Human CYP1A2 and CYP3A4 Inhibitors from Seaweed In Silico and In Vitro” (Marine Drugs, 2020).

Molecules are shown by their SMILES. pIC50: −log10 of the molar value. Like-named read-outs stand apart in the source and are kept apart here.

As usually defined, the pIC50 is the negative decadic logarithm of the IC50, by convention in mol/L. The IC50 is the point on the concentration scale where inhibition reaches its midpoint.

The target of data set [1] is T1, CYP1A2 (Homo sapiens, UniProt P05177).
T1 sequence (P05177 1-516): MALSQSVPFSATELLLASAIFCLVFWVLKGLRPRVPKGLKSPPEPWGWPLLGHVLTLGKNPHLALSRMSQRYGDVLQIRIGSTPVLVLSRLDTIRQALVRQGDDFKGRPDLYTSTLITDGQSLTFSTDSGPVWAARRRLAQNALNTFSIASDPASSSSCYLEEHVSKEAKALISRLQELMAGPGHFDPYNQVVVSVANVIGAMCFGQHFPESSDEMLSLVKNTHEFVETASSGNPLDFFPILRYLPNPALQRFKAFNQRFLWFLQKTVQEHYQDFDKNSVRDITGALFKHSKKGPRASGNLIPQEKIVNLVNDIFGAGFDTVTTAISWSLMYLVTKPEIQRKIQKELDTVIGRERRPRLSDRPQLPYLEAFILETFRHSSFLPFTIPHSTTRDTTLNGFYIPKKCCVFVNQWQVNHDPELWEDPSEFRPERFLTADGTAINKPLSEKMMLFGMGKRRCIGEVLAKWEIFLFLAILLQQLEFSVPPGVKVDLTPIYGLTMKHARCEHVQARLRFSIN
In words: Vivid CYP1A2 blue screening kit inhibition assay. The note with it: 3.125–200 μM; for effect on CYP1A2 activity (in words): in vitro. How it is done:
(§1) Human CYP1A2 and CYP3A4 activities were determined using the Vivid™ CYP1A2 blue screening kit and Vivid™ CYP3A4 red screening kit according to the manufacturer’s instructions. For the CYP1A2 and CYP3A4 inhibition assay, different concentrations (3.125–200 μM) of test compounds or inhibitors were mixed with a master pre-mix comprising of CYP450 BACULOSOMES® reagent and regeneration system which contained glucose-6-phosphate and glucose-6-phosphate dehydrogenase. The mixture was incubated at room temperature for 10 min. Following incubation, each CYP enzyme-specific substrate (Vivid EOMCC for CYP1A2 and Vivid BOMR for CYP3A4) and NADP^+ were added to start the reaction. The plate was immediately transferred into the fluorescent plate reader and read in 1 min intervals for 60 min at Ex 415 nm/Em 460 nm (CYP1A2) and Ex 550 nm/Em 590 nm (CYP3A4), respectively. […] The plots were made with Graph-Pad Prism software (Graph-Pad, San Diego, CA, USA).

Another data set has as its target human recombinant CYP3A4 (Homo sapiens, UniProt P08684). In words: Vivid CYP3A4 red screening kit inhibition assay. How it is done:
as §1

In data set [2] the test system is CYP1A2. The following applies: cited from earlier work.
For another data set, the system named is CYP2E1. The following applies: cited from earlier work.
For the next data set, the system named is CYP2D6. The following applies: cited from earlier work.
Another data set concerns CYP2C19. The note with it: cited from earlier work.
Data set [3] has as its system CYP3A4. The note with it: cited from earlier work.
Data set [4] deals with CYP1A1. The note with it: read-out: IC50 CYP1A1 enzyme activity; cited from earlier work.
The subject of data set [5] is CYP1A2. The following applies: read-out: IC50 CYP1A2 enzyme activity; cited from earlier work.
Data set [6] concerns CYP3A4. The note with it: read-out: IC50 CYP3A4 enzyme activity; cited from earlier work.
The test system of data set [7] is CYP1A1. Also on record: method as in PMID 31655123. The following applies: cited from earlier work.
Where [8] appears, read: CYP1A2 In Vitro IC50, CYP1A2 BACULOSOMES, substrate Vivid EOMCC, n.i. = no inhibition.

Chain of human recombinant CYP3A4 (P08684 whole entry): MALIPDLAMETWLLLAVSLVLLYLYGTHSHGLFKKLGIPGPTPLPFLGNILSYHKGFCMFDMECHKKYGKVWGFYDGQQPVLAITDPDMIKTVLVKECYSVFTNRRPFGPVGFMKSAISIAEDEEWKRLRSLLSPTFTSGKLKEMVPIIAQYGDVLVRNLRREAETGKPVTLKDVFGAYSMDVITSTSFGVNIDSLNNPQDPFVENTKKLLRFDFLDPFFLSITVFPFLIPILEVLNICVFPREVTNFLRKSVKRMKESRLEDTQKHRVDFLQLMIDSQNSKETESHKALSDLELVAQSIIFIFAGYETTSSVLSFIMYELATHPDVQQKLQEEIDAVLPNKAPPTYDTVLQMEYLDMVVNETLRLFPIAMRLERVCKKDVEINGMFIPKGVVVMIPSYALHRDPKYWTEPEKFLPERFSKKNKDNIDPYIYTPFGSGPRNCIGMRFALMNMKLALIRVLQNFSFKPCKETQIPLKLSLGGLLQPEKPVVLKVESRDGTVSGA

Regarding `COc1ccc([C@@H]2CC(=O)c3c(O)cc(O[C@@H]4O[C@H](CO[C@@H]5O[C@@H](C)[C@H](O)[C@@H](O)[C@H]5O)[C@@H](O)[C@H](O)[C@H]4O)cc3O2)cc1O` [Hesperidin, hesperidin], the “effect on CYP1A2 activity (in words)” value is on record as “did not show any significant effect” at CYP1A2 [1] and “no significant inhibitory effect” on CYP1A2 [1] (listed as HSP). The “effect on CYP3A4 activity (in words)” value on human recombinant CYP3A4 (in vitro, at high concentrations) is “slightly inhibited”.
Consider `O=c1c(O)c(-c2ccc(O)c(O)c2)oc2cc(O)cc(O)c12` [Quercetin, quercetin], for which, in the data set on CYP1A2 [2], the “effect on CYP1A2 (in words)” value is listed as “did not show any significant effect”. For the same compound, the “effect on CYP2E1 (in words)” value in the data set on CYP2E1 is reported as “did not show any significant effect”. Also, the “inhibitory effect against CYP2D6 (in words)” value in the data set on CYP2D6 is “strong inhibitory effect”. In addition, the “inhibitory effect against CYP2C19 (in words)” value in the data set with CYP2C19 is reported as “moderate effect”. Besides, in the data set with CYP3A4 [3], the “inhibitory effect against CYP3A4 (in words)” value is on record as “moderate effect”.
As to `CC(=O)O[C@H]1CC(C)(C)C(=C=C/C(C)=C/C=C/C(C)=C/C=C/C=C(C)/C=C/C=C(\C)C(=O)C[C@@]23O[C@]2(C)C[C@@H](O)CC3(C)C)[C@](C)(O)C1` [Fucoxanthin, fucoxanthin], the pIC50 on CYP1A2 [1] (setting [8]) was 4.52; at human recombinant CYP3A4 (CYP3A4 In Vitro IC50, CYP3A4 BACULOSOMES, substrate Vivid BOMR, 3.125–200 μM, n.i. = no inhibition), 4.61; in the data set on CYP1A1 [4] it was 4.90; in the data set with CYP1A2 [5], 4.31; in the data set on CYP3A4 [6], 4.96. Moreover, on CYP1A2 [1] (human, recombinant human CYP1A2 (CYP450 BACULOSOMES reagent), probe Vivid EOMCC, CYP1A2 In Vitro IC50, CYP1A2 BACULOSOMES, substrate Vivid EOMCC, n.i. = no inhibition), the IC50 at 60 min came out at 30.2 µM.
For `O=c1c(O)c(-c2ccc(O)cc2O)oc2cc(O)cc(O)c12` [Morin, morin hydrate], the pIC50 on CYP1A2 [1] (setting [8]) is 4.38; in the data set with CYP1A1 [7] it was 3.90.
